system: SCZD hiPSC neurons; type: cell-based, human

Row | Molecule | rabies trans-neuronal tracing in the presence of drugs known to affect synaptic transmission
1 | ryanodine | occurs
2 | NC1=N[C@H](O)[C@H]2[C@H]3O[C@]4(O)O[C@@H]([C@@H](O)[C@@]2(N1)[C@@H]4O)[C@]3(O)CO [tetrodotoxin] | occurs
3 | [Cl-].[K+] [KCl] | occurs
